The results in this text go back to article PMC10661964 (Current Drug Metabolism, 2023).

pIC50: −log10 of the molar value.

As a reminder, the pIC50 is the negative decadic logarithm of the IC50, by convention in mol/L. A low value points to a high IC50.

Holding throughout (assay type): in vitro ADME
One assay has as its target T1, BCRP (Homo sapiens, UniProt Q9UNQ0).
T1 sequence (Q9UNQ0 1-655): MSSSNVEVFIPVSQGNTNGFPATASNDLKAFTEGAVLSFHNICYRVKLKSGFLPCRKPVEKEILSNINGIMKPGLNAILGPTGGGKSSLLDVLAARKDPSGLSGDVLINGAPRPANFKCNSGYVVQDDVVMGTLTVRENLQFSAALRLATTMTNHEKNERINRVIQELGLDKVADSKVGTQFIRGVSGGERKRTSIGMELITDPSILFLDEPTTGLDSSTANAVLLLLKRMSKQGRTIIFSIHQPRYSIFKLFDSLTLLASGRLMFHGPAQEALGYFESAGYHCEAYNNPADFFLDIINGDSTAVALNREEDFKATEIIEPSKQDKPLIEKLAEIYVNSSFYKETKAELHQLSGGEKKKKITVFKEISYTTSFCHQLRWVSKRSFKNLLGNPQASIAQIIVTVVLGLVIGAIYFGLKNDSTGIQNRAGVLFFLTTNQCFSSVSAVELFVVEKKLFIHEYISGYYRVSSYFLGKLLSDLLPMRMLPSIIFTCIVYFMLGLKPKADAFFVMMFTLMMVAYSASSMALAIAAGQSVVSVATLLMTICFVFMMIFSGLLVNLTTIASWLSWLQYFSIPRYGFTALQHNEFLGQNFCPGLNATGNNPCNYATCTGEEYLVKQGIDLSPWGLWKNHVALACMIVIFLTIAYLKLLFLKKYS
The assay can be described thus: Efflux transporter inhibition. The source says: (§1) The inhibition of cytochrome P450 (CYP) isoforms and a range of cellular transporters (except multidrug and toxin extrusion [MATE] proteins), as well as the induction of CYP isoforms were investigated using previously described methods.

The target of a further assay is P-gp (Homo sapiens, UniProt P08183). Briefly: Efflux transporter inhibition.
Chain of P-gp (P08183 whole entry): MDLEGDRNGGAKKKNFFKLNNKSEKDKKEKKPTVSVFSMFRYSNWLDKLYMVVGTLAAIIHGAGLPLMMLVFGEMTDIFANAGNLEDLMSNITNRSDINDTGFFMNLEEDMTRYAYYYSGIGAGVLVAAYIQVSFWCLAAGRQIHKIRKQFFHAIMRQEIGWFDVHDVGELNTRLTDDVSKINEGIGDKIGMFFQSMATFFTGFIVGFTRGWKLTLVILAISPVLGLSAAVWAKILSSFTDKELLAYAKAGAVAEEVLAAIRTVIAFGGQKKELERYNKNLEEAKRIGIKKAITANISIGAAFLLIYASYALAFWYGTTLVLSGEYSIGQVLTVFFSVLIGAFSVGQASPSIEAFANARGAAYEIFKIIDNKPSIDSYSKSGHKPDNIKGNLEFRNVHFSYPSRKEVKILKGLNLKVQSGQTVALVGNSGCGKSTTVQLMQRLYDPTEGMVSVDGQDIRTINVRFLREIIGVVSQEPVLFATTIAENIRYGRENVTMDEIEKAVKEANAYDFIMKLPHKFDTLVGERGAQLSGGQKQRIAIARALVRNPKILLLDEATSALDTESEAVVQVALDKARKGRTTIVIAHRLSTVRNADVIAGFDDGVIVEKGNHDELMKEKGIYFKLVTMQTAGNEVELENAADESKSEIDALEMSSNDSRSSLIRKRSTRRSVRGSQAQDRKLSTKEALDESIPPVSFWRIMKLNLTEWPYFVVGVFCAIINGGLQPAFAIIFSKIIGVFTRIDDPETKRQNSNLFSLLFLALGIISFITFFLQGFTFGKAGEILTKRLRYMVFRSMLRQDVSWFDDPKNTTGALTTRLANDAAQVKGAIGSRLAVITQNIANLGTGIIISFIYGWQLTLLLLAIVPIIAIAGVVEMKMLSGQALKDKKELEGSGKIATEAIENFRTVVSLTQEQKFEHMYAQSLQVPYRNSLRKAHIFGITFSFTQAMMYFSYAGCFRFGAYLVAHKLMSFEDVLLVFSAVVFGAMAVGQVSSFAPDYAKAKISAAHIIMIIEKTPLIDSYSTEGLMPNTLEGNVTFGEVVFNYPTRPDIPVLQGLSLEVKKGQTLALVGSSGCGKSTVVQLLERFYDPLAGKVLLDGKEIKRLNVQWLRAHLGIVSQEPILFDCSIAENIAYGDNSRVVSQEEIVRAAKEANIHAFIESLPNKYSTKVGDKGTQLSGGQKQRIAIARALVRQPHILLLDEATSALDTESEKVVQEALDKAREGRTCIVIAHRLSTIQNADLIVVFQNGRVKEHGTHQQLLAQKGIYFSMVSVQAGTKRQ
From the text: as §1

A further assay addresses T2, OATP1B1 (Homo sapiens, UniProt Q9Y6L6).
T2 sequence (Q9Y6L6 1-691): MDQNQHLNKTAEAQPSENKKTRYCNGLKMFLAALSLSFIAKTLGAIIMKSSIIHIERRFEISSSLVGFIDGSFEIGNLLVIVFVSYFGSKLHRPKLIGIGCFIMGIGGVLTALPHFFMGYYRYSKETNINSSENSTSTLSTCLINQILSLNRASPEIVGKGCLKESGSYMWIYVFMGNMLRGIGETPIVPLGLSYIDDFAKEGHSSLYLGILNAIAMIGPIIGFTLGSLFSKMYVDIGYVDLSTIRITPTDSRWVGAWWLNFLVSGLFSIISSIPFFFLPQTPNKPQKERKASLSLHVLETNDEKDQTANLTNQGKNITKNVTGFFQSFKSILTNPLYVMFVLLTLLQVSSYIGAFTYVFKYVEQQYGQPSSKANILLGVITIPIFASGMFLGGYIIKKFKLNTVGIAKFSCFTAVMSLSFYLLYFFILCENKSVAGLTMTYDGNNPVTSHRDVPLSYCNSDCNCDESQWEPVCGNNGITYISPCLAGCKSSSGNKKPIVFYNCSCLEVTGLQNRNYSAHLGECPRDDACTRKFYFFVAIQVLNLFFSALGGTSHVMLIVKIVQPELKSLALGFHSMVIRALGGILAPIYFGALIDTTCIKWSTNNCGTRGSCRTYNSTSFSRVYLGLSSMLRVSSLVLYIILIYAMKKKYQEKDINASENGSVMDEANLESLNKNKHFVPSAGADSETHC
Briefly: Uptake transporter inhibition. To be noted: probe substrate pravastatin.
From the text: as §1

A further assay deals with T3, OATP1B3 (Homo sapiens, UniProt Q9NPD5).
T3 sequence (Q9NPD5 1-702): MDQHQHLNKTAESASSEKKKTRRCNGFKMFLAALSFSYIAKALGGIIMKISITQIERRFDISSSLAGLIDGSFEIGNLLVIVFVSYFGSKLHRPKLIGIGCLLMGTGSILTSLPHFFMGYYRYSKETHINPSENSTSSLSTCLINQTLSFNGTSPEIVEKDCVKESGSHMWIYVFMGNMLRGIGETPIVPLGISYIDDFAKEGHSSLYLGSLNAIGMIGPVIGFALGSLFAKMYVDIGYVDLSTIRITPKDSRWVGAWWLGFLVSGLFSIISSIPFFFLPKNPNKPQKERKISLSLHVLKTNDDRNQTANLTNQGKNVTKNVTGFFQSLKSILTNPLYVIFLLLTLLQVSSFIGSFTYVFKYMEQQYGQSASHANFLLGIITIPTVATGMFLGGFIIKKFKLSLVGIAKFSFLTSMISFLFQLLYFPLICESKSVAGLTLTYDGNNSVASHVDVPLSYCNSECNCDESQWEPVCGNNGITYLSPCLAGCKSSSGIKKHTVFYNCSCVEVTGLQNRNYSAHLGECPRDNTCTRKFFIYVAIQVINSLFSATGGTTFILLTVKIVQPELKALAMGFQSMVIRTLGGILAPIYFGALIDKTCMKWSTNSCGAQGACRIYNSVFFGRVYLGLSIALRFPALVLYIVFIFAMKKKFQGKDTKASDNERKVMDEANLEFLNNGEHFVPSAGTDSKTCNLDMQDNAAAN
The assay can be described thus: Uptake transporter inhibition. To be noted: probe substrate pravastatin.
From the text: as §1

For a further assay, the target named is T4, OCT2 (Homo sapiens, UniProt O15244).
T4 sequence (O15244 1-555): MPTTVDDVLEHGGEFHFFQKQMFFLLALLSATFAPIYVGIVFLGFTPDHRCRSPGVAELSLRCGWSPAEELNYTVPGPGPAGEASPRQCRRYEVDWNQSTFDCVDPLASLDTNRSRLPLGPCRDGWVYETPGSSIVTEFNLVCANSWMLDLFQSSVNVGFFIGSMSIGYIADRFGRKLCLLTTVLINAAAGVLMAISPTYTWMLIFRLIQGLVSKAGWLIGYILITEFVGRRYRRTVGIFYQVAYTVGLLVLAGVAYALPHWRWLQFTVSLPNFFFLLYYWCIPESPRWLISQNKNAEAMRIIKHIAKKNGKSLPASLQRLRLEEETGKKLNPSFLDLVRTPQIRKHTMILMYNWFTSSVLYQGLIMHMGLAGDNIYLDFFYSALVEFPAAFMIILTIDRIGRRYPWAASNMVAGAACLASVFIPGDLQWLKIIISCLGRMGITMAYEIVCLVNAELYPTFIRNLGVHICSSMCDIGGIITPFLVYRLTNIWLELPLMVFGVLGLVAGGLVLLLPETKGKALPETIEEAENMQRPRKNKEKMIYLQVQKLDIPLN
Briefly: Uptake transporter inhibition. To be noted: probe substrate 1-methyl-4-phenylpyridinium.
From the text: as §1

Setting [1] is: probe substrate digoxin, for M-4 the highest test concentration of 20 µM was not valid.

As to `CC1CS(=O)(=O)CCN1n1cc(SCC(N)C(=O)O)ccc1=O` (centres unmarked) [M-4], the pIC50 against BCRP (probe substrate fluvastatin) is < 4.70; against BCRP (probe substrate topotecan), < 4.70; against P-gp (setting [1]), < 5.30; against P-gp (probe substrate dipyridamole), < 4.70; at OATP1B1, < 4.70; against OATP1B3 it was 5.00. Moreover, the negative-log IC50 (pIC50) at OCT2 is < 5.30.

For the compound `CC1CS(=O)(=O)CCN1N` (centres unmarked) [M-6], the negative logarithm of the IC50 (pIC50) against BCRP (probe substrate fluvastatin) is < 3.70; at BCRP (probe substrate topotecan), < 3.70; at P-gp (setting [1]) it was < 3.70; against P-gp (probe substrate dipyridamole), < 3.70; against OATP1B1, < 4.30; against OATP1B3, < 4.30. Also, on OCT2, the pIC50 is < 4.52.

In the case of `CC1CS(=O)(=O)CCN1/N=C/c1ccc([N+](=O)[O-])o1` (centres unmarked) [Nifurtimox, (E)-N-(3-methyl-1,1-dioxo-1,4-thiazinan-4-yl)-1-(5-nitrofuran-2-yl) methanimine, reference compound], the pIC50 at BCRP (probe substrate topotecan) is < 4.00; against P-gp (setting [1]) it was < 4.00; against P-gp (probe substrate dipyridamole), < 4.00; against OATP1B1, < 4.30; at OATP1B3, < 4.30; against OCT2, < 4.70.
